What was measured:
[1] = tested on: Mice (C57/B6J, 8 weeks old male) fed with high-fat food
Text: Mice (C57/B6J, 8 weeks old male) were divided into 4 groups (5 animals each), and the first group (DB) was freely fed with ordinary food (Certified Diet “MF” manufactured by Oriental Yeast Co., ltd.). The second group (HFD) was freely fed with high-fat food (High Fat Diet 32, manufactured by CLEA Japan, Inc.), […].
When the mouse was 20 weeks old, the body weight, the liver weight, the serum aspartate aminotransferase (AST), the alanine aminotransferase (ALT), the serum triglyceride (TG), the free fatty acid value (FFA) and the total cholesterol value (T-cho) were measured.

[2] = tested on: subjects who had NAFLD in 31 IU/L or more of ALT; details: Case IDs 1 to 9 (group affected); at least one week after initiation; glutathione 300 mg per day orally

With `N[C@@H](CCC(=O)N[C@@H](CS)C(=O)NCC(=O)O)C(=O)O` [glutathione] the “serum AST” value ([1]; HFD6 (6 mg/kg/day) and HFD60 (60 mg/kg/day) groups in comparison to the HFD group, 20 weeks old, concentration dependent, FIG. 5A) was “significant decrease”, the “serum ALT” value ([1]; HFD6 (6 mg/kg/day) and HFD60 (60 mg/kg/day) groups in comparison to the HFD group, 20 weeks old, concentration dependent, FIG. 5B) was “significant decrease” and the “serum TG (triglyceride value)” value ([1]; HFD6 (6 mg/kg/day) and HFD60 (60 mg/kg/day) groups in comparison to the HFD group, 20 weeks old, concentration dependent, FIG. 6A) was “significant decrease”. The “serum FFA (free fatty acid value)” value ([1]; HFD6 (6 mg/kg/day) and HFD60 (60 mg/kg/day) groups in comparison to the HFD group, 20 weeks old, concentration dependent, FIG. 6B) was “significant decrease”, the “serum T-cho (total cholesterol value)” value ([1]; HFD6 (6 mg/kg/day) and HFD60 (60 mg/kg/day) groups in comparison to the HFD group, 20 weeks old, concentration dependent, FIG. 6C) was “significant decrease” and the “consumption amount of feed” value ([1]; all of the groups (DB, HFD, HFD6, HFD60), FIG. 3A) was “no significant difference”. The “consumption amount of water” value ([1]; all of the groups (DB, HFD, HFD6, HFD60), FIG. 3B) was “no significant difference”, the liver weight ([1]; high-fat food mice, glutathione 6 and 60 mg/kg/day in water, 20 weeks old, FIG. 4A) was “decreased dependently on the concentration” and the “ratio of liver weight/body weight” value ([1]; high-fat food mice, glutathione 6 and 60 mg/kg/day in water, 20 weeks old, FIG. 4B) was “decrease of the body weight ratio was also recognized”. The “deposition of fat on the liver by high-fat food” value ([1]; high-fat food mice, glutathione 6 and 60 mg/kg/day in water, concluded from liver weight) was “suppressed”, the body weight ([1]; high-fat food mice, glutathione 6 or 60 mg/kg/day in water, FIGS. 1 and 2) was “decrease of the body weight was recognized” and the “improvement of ALT after the administration versus before initiation (0 wk)” value [2] was ≥ 20%.

— patent US11207371B2, “Composition for improving or preventing nonalcoholic fatty liver” (KOHJIN LIFE SCIENCES CO., LTD., priority 2015, dated 2021)
